Source: patent publication US10807992B2, “Single enantiomer antiparasitic compounds” (priority 2017, dated 2020)
Read-outs that look alike come from different tables or passages of the source.

System: Aedes aegypti
Assay: In vitro contact activity against adult mosquitoes (coated vial)
Description: Aedes aegypti (Louisiana Biologicals Inc., New Orleans, La.) eggs were allowed to hatch, close, and age between 3-5 days in an environmental chamber at 26° C., 80% humidity with light/dark cycles.
For mosquito assays, an aliquot from each compound stock was added to an acetone/triton solution to achieve the desired top doses for the study. Serial dilutions were conducted from the top dose (i.e. 50 ppm) to achieve the desired titration range for EC50 and EC90 determination. The final DMSO concentration in each test vial was 0.5%. A 459 μL aliquot of each compound formulation was transferred to a vial and vials were immediately placed on an unheated roller unit to allow for an even coating of the vial walls. The vials were loosely capped and allowed to dry for a minimum of four hours in a chemical fume hood.
For both contact and ingestion assays, five female Aedes aegypti adults were added to each vial or cage. The test vials for contact assays were held in an environmental chamber at 24° C., 80% humidity with light/dark cycles (12 hours each). The cages for mosquito ingestion assays were held in a temperature-controlled artificial feeding apparatus to allow continual access to organic bovine blood containing the desired concentration of compound. Fresh aliquots of compound-spiked bovine blood were provided daily for the duration of the study.
Mosquitoes showing no movement or mosquitoes that were knocked down were noted as dead. Results from trial 1 and trial 2 contact assays are shown in Tables 12 and 13, respectively and the results from trial 3 mosquito ingestion assay is shown in table 14.
For the mosquito contact and ingestion assays, each replicate contained 5 mosquitoes. For ease of calculation, the two replicates were added to equal a total of 10 mosquitoes.

O=C(CC(F)(F)F)N1CC2(C1)OCc1cc(C3=NS[C@](c4cc(Cl)c(F)c(Cl)c4)(C(F)(F)F)C3)ccc12 [C1 (R) enantiomer, (R)-1-[6-[5-(3,5-dichloro-4-fluoro-phenyl)-5-(trifluoromethyl)-4H-isothiazol-3-yl]spiro[1H-isobenzofuran-3,3′-azetidine]-1′-yl]-3,3,3-trifluoro-propan-1-one]
10%: mortality at 0.2 µM (12 h, read-out: % Mortality R1 + R2, Trial 2, contact assay, dose 0.20 μM, 12 hr) | mortality at 0.78 µM (12 h, read-out: % Mortality R1 + R2, Trial 2, contact assay, dose 0.78 μM, 12 hr) | mortality at 0.78 µM (24 h, read-out: % Mortality R1 + R2, Trial 2, contact assay, dose 0.78 μM, 24 hr) | mortality at 3.125 µM (24 h, read-out: % Mortality R1 + R2, Trial 2, contact assay, dose 3.125 μM, 24 hr) | mortality at 0.049 µM (48 h, read-out: % Mortality R1 + R2, Trial 1, contact assay, dose 0.049 μM, 48 hr) | mortality at 0.78 µM (48 h, read-out: % Mortality R1 + R2, Trial 2, contact assay, dose 0.78 μM, 48 hr)
30%: mortality at 50 µM (12 h, read-out: % Mortality R1 + R2, Trial 1, contact assay, dose 50 μM, 12 hr) | mortality at 3.125 µM (48 h, read-out: % Mortality R1 + R2, Trial 1, contact assay, dose 3.125 μM, 48 hr)
50%: mortality at 12.5 µM (48 h, read-out: % Mortality R1 + R2, Trial 1, contact assay, dose 12.5 μM, 48 hr)
20%: mortality at 50 µM (12 h, read-out: % Mortality R1 + R2, Trial 2, contact assay, dose 50 μM, 12 hr) | mortality at 0.78 µM (48 h, read-out: % Mortality R1 + R2, Trial 1, contact assay, dose 0.78 μM, 48 hr) | mortality at 0.049 µM (48 h, read-out: % Mortality R1 + R2, Trial 2, contact assay, dose 0.049 μM, 48 hr) | mortality at 3.125 µM (48 h, read-out: % Mortality R1 + R2, Trial 2, contact assay, dose 3.125 μM, 48 hr)
0%: mortality at 0.049 µM (0.5 h, read-out: % Mortality R1 + R2, Trial 1, contact assay, dose 0.049 μM, 0.5 Hr) | mortality at 0.2 µM (0.5 h, read-out: % Mortality R1 + R2, Trial 1, contact assay, dose 0.20 μM, 0.5 Hr) | mortality at 0.78 µM (0.5 h, read-out: % Mortality R1 + R2, Trial 1, contact assay, dose 0.78 μM, 0.5 Hr) | mortality at 3.125 µM (0.5 h, read-out: % Mortality R1 + R2, Trial 1, contact assay, dose 3.125 μM, 0.5 Hr) | mortality at 12.5 µM (0.5 h, read-out: % Mortality R1 + R2, Trial 1, contact assay, dose 12.5 μM, 0.5 Hr) | mortality at 50 µM (0.5 h, read-out: % Mortality R1 + R2, Trial 1, contact assay, dose 50 μM, 0.5 Hr) | mortality at 0.049 µM (0.5 h, read-out: % Mortality R1 + R2, Trial 2, contact assay, dose 0.049 μM, 0.5 Hr) | mortality at 0.2 µM (0.5 h, read-out: % Mortality R1 + R2, Trial 2, contact assay, dose 0.20 μM, 0.5 Hr) | mortality at 0.78 µM (0.5 h, read-out: % Mortality R1 + R2, Trial 2, contact assay, dose 0.78 μM, 0.5 Hr) | mortality at 3.125 µM (0.5 h, read-out: % Mortality R1 + R2, Trial 2, contact assay, dose 3.125 μM, 0.5 Hr) | mortality at 12.5 µM (0.5 h, read-out: % Mortality R1 + R2, Trial 2, contact assay, dose 12.5 μM, 0.5 Hr) | mortality at 50 µM (0.5 h, read-out: % Mortality R1 + R2, Trial 2, contact assay, dose 50 μM, 0.5 Hr) | mortality at 0.049 µM (1 h, read-out: % Mortality R1 + R2, Trial 1, contact assay, dose 0.049 μM, 1 hr) | mortality at 0.2 µM (1 h, read-out: % Mortality R1 + R2, Trial 1, contact assay, dose 0.20 μM, 1 hr) | mortality at 0.78 µM (1 h, read-out: % Mortality R1 + R2, Trial 1, contact assay, dose 0.78 μM, 1 hr) | mortality at 3.125 µM (1 h, read-out: % Mortality R1 + R2, Trial 1, contact assay, dose 3.125 μM, 1 hr) | mortality at 12.5 µM (1 h, read-out: % Mortality R1 + R2, Trial 1, contact assay, dose 12.5 μM, 1 hr) | mortality at 50 µM (1 h, read-out: % Mortality R1 + R2, Trial 1, contact assay, dose 50 μM, 1 hr) | mortality at 0.049 µM (1 h, read-out: % Mortality R1 + R2, Trial 2, contact assay, dose 0.049 μM, 1 hr) | mortality at 0.2 µM (1 h, read-out: % Mortality R1 + R2, Trial 2, contact assay, dose 0.20 μM, 1 hr) | mortality at 0.78 µM (1 h, read-out: % Mortality R1 + R2, Trial 2, contact assay, dose 0.78 μM, 1 hr) | mortality at 3.125 µM (1 h, read-out: % Mortality R1 + R2, Trial 2, contact assay, dose 3.125 μM, 1 hr) | mortality at 12.5 µM (1 h, read-out: % Mortality R1 + R2, Trial 2, contact assay, dose 12.5 μM, 1 hr) | mortality at 50 µM (1 h, read-out: % Mortality R1 + R2, Trial 2, contact assay, dose 50 μM, 1 hr) | mortality at 0.049 µM (6 h, read-out: % Mortality R1 + R2, Trial 1, contact assay, dose 0.049 μM, 6 hr) | mortality at 0.2 µM (6 h, read-out: % Mortality R1 + R2, Trial 1, contact assay, dose 0.20 μM, 6 hr) | mortality at 0.78 µM (6 h, read-out: % Mortality R1 + R2, Trial 1, contact assay, dose 0.78 μM, 6 hr) | mortality at 3.125 µM (6 h, read-out: % Mortality R1 + R2, Trial 1, contact assay, dose 3.125 μM, 6 hr) | mortality at 12.5 µM (6 h, read-out: % Mortality R1 + R2, Trial 1, contact assay, dose 12.5 μM, 6 hr) | mortality at 50 µM (6 h, read-out: % Mortality R1 + R2, Trial 1, contact assay, dose 50 μM, 6 hr) | mortality at 0.049 µM (6 h, read-out: % Mortality R1 + R2, Trial 2, contact assay, dose 0.049 μM, 6 hr) | mortality at 0.2 µM (6 h, read-out: % Mortality R1 + R2, Trial 2, contact assay, dose 0.20 μM, 6 hr) | mortality at 0.78 µM (6 h, read-out: % Mortality R1 + R2, Trial 2, contact assay, dose 0.78 μM, 6 hr) | mortality at 3.125 µM (6 h, read-out: % Mortality R1 + R2, Trial 2, contact assay, dose 3.125 μM, 6 hr) | mortality at 12.5 µM (6 h, read-out: % Mortality R1 + R2, Trial 2, contact assay, dose 12.5 μM, 6 hr) | mortality at 50 µM (6 h, read-out: % Mortality R1 + R2, Trial 2, contact assay, dose 50 μM, 6 hr) | mortality at 0.049 µM (12 h, read-out: % Mortality R1 + R2, Trial 1, contact assay, dose 0.049 μM, 12 hr) | mortality at 0.2 µM (12 h, read-out: % Mortality R1 + R2, Trial 1, contact assay, dose 0.20 μM, 12 hr) | mortality at 0.78 µM (12 h, read-out: % Mortality R1 + R2, Trial 1, contact assay, dose 0.78 μM, 12 hr) | mortality at 3.125 µM (12 h, read-out: % Mortality R1 + R2, Trial 1, contact assay, dose 3.125 μM, 12 hr) | mortality at 12.5 µM (12 h, read-out: % Mortality R1 + R2, Trial 1, contact assay, dose 12.5 μM, 12 hr) | mortality at 0.049 µM (12 h, read-out: % Mortality R1 + R2, Trial 2, contact assay, dose 0.049 μM, 12 hr) | mortality at 3.125 µM (12 h, read-out: % Mortality R1 + R2, Trial 2, contact assay, dose 3.125 μM, 12 hr) | mortality at 12.5 µM (12 h, read-out: % Mortality R1 + R2, Trial 2, contact assay, dose 12.5 μM, 12 hr) | mortality at 0.049 µM (24 h, read-out: % Mortality R1 + R2, Trial 1, contact assay, dose 0.049 μM, 24 hr) | mortality at 0.2 µM (24 h, read-out: % Mortality R1 + R2, Trial 1, contact assay, dose 0.20 μM, 24 hr) | mortality at 0.78 µM (24 h, read-out: % Mortality R1 + R2, Trial 1, contact assay, dose 0.78 μM, 24 hr) | mortality at 3.125 µM (24 h, read-out: % Mortality R1 + R2, Trial 1, contact assay, dose 3.125 μM, 24 hr) | mortality at 12.5 µM (24 h, read-out: % Mortality R1 + R2, Trial 1, contact assay, dose 12.5 μM, 24 hr) | mortality at 0.049 µM (24 h, read-out: % Mortality R1 + R2, Trial 2, contact assay, dose 0.049 μM, 24 hr) | mortality at 0.2 µM (24 h, read-out: % Mortality R1 + R2, Trial 2, contact assay, dose 0.20 μM, 24 hr)
60%: mortality at 12.5 µM (24 h, read-out: % Mortality R1 + R2, Trial 2, contact assay, dose 12.5 μM, 24 hr) | mortality at 0.2 µM (48 h, read-out: % Mortality R1 + R2, Trial 2, contact assay, dose 0.20 μM, 48 hr)
100%: mortality at 50 µM (24 h, read-out: % Mortality R1 + R2, Trial 1, contact assay, dose 50 μM, 24 hr) | mortality at 50 µM (24 h, read-out: % Mortality R1 + R2, Trial 2, contact assay, dose 50 μM, 24 hr) | mortality at 50 µM (48 h, read-out: % Mortality R1 + R2, Trial 1, contact assay, dose 50 μM, 48 hr) | mortality at 12.5 µM (48 h, read-out: % Mortality R1 + R2, Trial 2, contact assay, dose 12.5 μM, 48 hr) | mortality at 50 µM (48 h, read-out: % Mortality R1 + R2, Trial 2, contact assay, dose 50 μM, 48 hr)
40%: mortality at 0.2 µM (48 h, read-out: % Mortality R1 + R2, Trial 1, contact assay, dose 0.20 μM, 48 hr)
